Results: PubChem BioAssay AID489022 (Sanford-Burnham Center for Chemical Genomics, 2010)
Calls of active or inactive are those of the source. No rule for the calls is given here.

System: HEK-293T NF-kB luciferase reporter, luminescence counterscreen
Assay: inhibitors of NF-kB luciferase reporter, HEK-293T, dose response, counter-screen for BCR NF-kB inhibitor project, luminescence, B-cell screen hits (AID 489022)

| SMILES | IC50 |
| --- | --- |
| COc1ccc(/C=C2/SC(=S)N(CCCC(=O)Nc3cccc(O)c3)C2=O)cc1 | 27.5 µM (inactive) |
| N=c1c2c(n(Cc3ccc(Cl)c(Cl)c3)c3c1CCC3)CCCC2 | 2.35 µM |
| CN1C(=O)CC(c2ccco2)Sc2ccccc21 (stereo not given) | > 80 µM (inactive) |
| Cn1c(=O)cc(OCC(=O)N2CCC3(CC2)OCCO3)c2ccccc21 | > 80 µM (inactive) |
| Cn1nc(-c2ccc(N3CCOCC3)c(NS(=O)(=O)c3ccccc3)c2)c2ccccc2c1=O | 36.9 µM (inactive) |
| COc1cccc(/C=C2\SC(=S)N(CCCC(=O)NC3=NCCS3)C2=O)c1 | 69.1 µM (inactive) |
| CC(C)(O)/C=C/C(=O)[C@](C)(O)C1[C@H](O)C[C@@]2(C)C3CC=C4C(C[C@H](O)[C@@H](O)C4(C)C)[C@]3(C)C(=O)C[C@]12C (stereo not given in full) | 65.8 µM (inactive) |
| CCCCCC/C=C/c1ccc(OC)c([C@H]2[C@H]3C=CC[C@@H](C)[C@@H]3C(=O)N2Cc2ccccc2)c1 | > 80 µM (inactive) |
| CNC(=O)CSc1nc2nn(-c3ccccc3)c(=O)c-2c2n1CCCCC2 | > 80 µM (inactive) |
| CCC(=O)N1c2ccccc2C(N(C(C)=O)c2ccccc2)CC1C (stereo not given) | > 80 µM (inactive) |
| COc1ccc(-n2nnnc2S(=O)(=O)CC(=O)N2CCCCC2)cc1 | 16.9 µM |
| CCN(CC)CCOC(=O)c1ccc(NC(=O)COc2cc(=O)n(CC)c3ccccc23)cc1 | 43.8 µM (inactive) |
| O=C(CCCN1C(=O)/C(=C/c2ccccc2Cl)SC1=S)NNC(=O)c1ccc(Cl)cc1Cl | > 80 µM (inactive) |
| COc1ccc(C=C(C(C)=O)C(C)=O)cc1OC | > 80 µM (inactive) |
| O=C(CCCN1C(=O)/C(=C/c2ccccc2Cl)SC1=S)NNC(=O)c1ccc(Cl)cc1 | > 80 µM (inactive) |
| Cc1c(CCC(=O)N2CCC(C(=O)O)(c3ccccc3)CC2)c(=O)oc2cc3oc4c(c3cc12)CCCC4 | 21.6 µM (inactive) |
| COc1ccc(-c2noc(CCCC(=O)Nc3ccc(C(N)=O)cc3)n2)cc1 | 27.3 µM (inactive) |
| CCn1c(CN2CCN(c3ccc(Cl)cc3)CC2)nc2ccccc21 | 9.25 µM |

| SMILES | IC50 |
| --- | --- |
| CCOc1ccc(-c2cc(CCCC(=O)NCc3ccc(C)cc3)no2)cc1 | 70.9 µM (inactive) |
| CC(C)Cn1c([N+](=O)[O-])nc2c1c(=O)[nH]c(=O)n2C | 37 µM (inactive) |
| CCN(CC)CCOC(=O)c1ccc(NC(=O)CCCN2C(=O)S/C(=C/c3ccc(OC)cc3)C2=S)cc1 | 11.6 µM |
| Nc1ccccc1SCC(=O)Nc1nc(-c2ccccc2)cs1 | 11.8 µM |
| COc1cccc(/C=C2/SC(=S)N(CCCC(=O)Nc3ccc(O)cc3)C2=O)c1 | 50.6 µM (inactive) |
| COc1ccc(-c2n(Cc3ccccc3)c3ccccc3[n+]2Cc2ccccc2)cc1 | 24.2 µM (inactive) |
| Cc1nn(C)c(C)c1CN(C)S(=O)(=O)c1ccc2ccccc2c1 | 0.36 µM |
| Cc1cc(NC(=O)CCCN2C(=O)/C(=C/c3ccccc3Cl)SC2=S)no1 | > 80 µM (inactive) |
| Cn1cnc([N+](=O)[O-])c1Sc1ccc([N+](=O)[O-])cc1 | > 80 µM (inactive) |
| COc1ccc(-c2ccoc2)cc1[C@H]1[C@H]2C=CC[C@@H](C)[C@@H]2C(=O)N1Cc1ccccc1 | 10.5 µM |
| Fc1ccc(C2=Nn3c(nnc3-c3n[nH]c4c3CCC4)SC2)cc1 | 16.7 µM |
| CN1C(=O)c2cccc3c(S(=O)(=O)Nc4ccccc4F)ccc1c23 | 69.7 µM (inactive) |
| COc1cc(NC(=O)c2cc3c(C)nc4ccccc4c3o2)cc(OC)c1OC | 18.4 µM |
| CCN(CC)CCCN=Cc1c(-c2ccccc2)[nH]n(-c2nc3ccccc3s2)c1=O | > 80 µM (inactive) |
| CC(C)c1ccc(/C=C2\SC(=S)N(CCC(=O)NCCCn3ccnc3)C2=O)cc1 | 50.2 µM (inactive) |
| CCOc1cc2nc(-c3ccc(OC)c(OC)c3)nc(N3CCOCC3)c2cc1OC | 7.5 µM |
| CCc1sc(C(=O)Nc2cccc(-n3cnnn3)c2)cc1C | > 80 µM (inactive) |
